These are literature values, as cited in patent publication US8173361B2, “Method of determining metabolism of a test agent” (The General Hospital Corporation, priority 2003, dated 2012).

The conditions of the series: treatment of chronic hepatitis B; clinical tests suspended.

In the case of `O=c1[nH]c(=O)n([C@@H]2O[C@H](CO)[C@@H](O)[C@@H]2F)cc1I` [fialuridine], the “drug-related toxicity in clinical tests” value was “drug-related liver failure leading to death in some patients”.
